Laboratory results taken from patent US6303612A, “Derivatives of hydroxyphenylsulfanylbenzoic and hydroxphenylsulfanylarylacetic acids” (Leciva, A.S., priority 1998, dated 2001).
In brackets after ≈: the same amount, converted by molar mass. Read-outs that look alike come from different tables or passages of the source.

Columns and labels:
[1] = test system: LTB4 production in rat polymorphonuclear cells; experiment: Ex vivo inhibition of LTB4 production (LTB4 biosynthesis); assay type: cell-based; conditions: for IC50: Rattus norvegicus, read-out: Inh. of LTB4 biosynth., IC50; for Inh. of LTB4 biosynth., %: at 30 μg (%/μg)
[2] = molecular target: LTB4 receptor (Cavia porcellus, UniProt H0VYV8); experiment: LTB4 receptor binding study; conditions: 3H-LTB4, guinea-pig spleen membranes; for IC50: read-out: Inh. of LTB4 rec. binding, IC50; for inhibition at 20 µM: read-out: Inh. of LTB4 rec. binding, %
Chain of LTB4 receptor (H0VYV8 1-348): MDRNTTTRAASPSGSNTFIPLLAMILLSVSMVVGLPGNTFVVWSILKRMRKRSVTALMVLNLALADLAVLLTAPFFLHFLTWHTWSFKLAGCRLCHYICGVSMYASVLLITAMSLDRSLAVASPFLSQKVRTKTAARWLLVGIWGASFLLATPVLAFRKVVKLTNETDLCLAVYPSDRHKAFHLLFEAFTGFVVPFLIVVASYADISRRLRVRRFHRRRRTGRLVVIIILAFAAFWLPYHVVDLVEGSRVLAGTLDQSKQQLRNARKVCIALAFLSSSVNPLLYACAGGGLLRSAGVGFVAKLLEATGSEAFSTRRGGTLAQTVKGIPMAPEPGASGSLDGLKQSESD
In short: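 Male guinea-pig spleen membranes (2 mg) incubated with 0.3 nM ^3H-LTB4 for 30 min at 25 °C; nonspecific binding defined with 0.1 μM LTB4. Bound ligand collected by GF/C filtration, counted by liquid scintillation to give specific binding.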

[3] = molecular target: T1, LTD4 receptor (Cavia porcellus, UniProt Q2NNR5); experiment: LTD4 receptor binding study; conditions: 3H-LTD4, guinea-pig lung membranes; for IC50: read-out: Inh. of LTD4 rec. binding, IC50; for inhibition at 100 µM: read-out: Inh. of LTD4 rec. binding, %
T1 construct: The membrane fraction was prepared from male guinea-pig lungs; from tissue; host or cells: male guinea-pig lung membranes
T1 sequence (Q2NNR5 1-340): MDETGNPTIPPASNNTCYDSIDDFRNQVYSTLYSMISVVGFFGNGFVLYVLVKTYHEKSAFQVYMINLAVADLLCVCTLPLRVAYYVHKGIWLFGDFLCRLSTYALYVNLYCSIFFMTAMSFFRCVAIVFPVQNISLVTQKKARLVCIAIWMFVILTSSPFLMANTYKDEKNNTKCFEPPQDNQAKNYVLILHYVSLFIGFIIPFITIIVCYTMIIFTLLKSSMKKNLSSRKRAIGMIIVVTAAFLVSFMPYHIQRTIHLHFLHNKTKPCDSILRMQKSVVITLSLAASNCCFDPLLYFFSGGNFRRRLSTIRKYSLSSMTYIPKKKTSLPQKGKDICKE
In short: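 Guinea-pig lung membranes (male animals) were incubated with 0.4 nM ³H-LTD4 for 60 min at 25 °C. Nonspecific binding was defined with 0.1 μM LTD4. Bound radioactivity was measured after filtration and washing.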

[4] = test system: peroxidation of lipids from the hepatic cells membranes; experiment: Antioxidant effect in vitro; assay type: biochemical; conditions: at 100 μg
Excerpt: Antioxidant Effect in vitro
The end-product, malonic dialdehyde, was transformed to coloured complex with thiobarbituric acid and determined spectrophotometrically. The antioxidant effect was expressed in % of peroxidation inhibition in the presence of the compound tested in comparison to a control sample.

[5] = test system: Wistar-Han rats; experiment: Inhibition of carrageenan edema; assay type: in vivo; conditions: dose 100 mg/kg; for inhibition in vivo at 100 mg/kg: Rattus norvegicus, read-out: CE: inhibition of carrageenan-induced edema, % of inh.
[6] = test system: rats; experiment: Inhibition of carrageenan-induced pleuritis in rats; assay type: in vivo; conditions: dose 100 mg/kg, oral, values with mark n: p > 0.05; for inhibition in vivo at 100 mg/kg: Rattus norvegicus, po, 4 h
In short: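 Rats given test drug as single oral dose 1 h before intrapleural 0.5% carrageenan (1 ml) under light ether anaesthesia. Pleural exudate collected 4 h later; volume, cellularity and total cell count measured.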

[7] = test system: male mice; experiment: Inhibition of arachidonic acid-induced ear inflammation in mice; assay type: in vivo; conditions: for inhibition in vivo at 200 mg/kg: Mus musculus, po, 1 h
In short: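 Compounds given orally 1 h before ear inflammation was induced in male mice with 20 µl arachidonic acid in acetone (100 mg/ml). Animals killed 1 h after induction. Ear hyperemia and ear-lobe weight assessed against the vehicle-treated contralateral ear.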

[8] = test system: bronchospasm induced by ovalbumin; experiment: Inhibition of bronchospasm induced by ovalbumin; assay type: in vivo
Experimental: (§1) Inhibition of Allergic Bronchospasm Induced by […] (Compound 48/80 or Ovalbumin, Respectively)
(§2) The modified method of Kreutner W. et al (Krelutner W. et al.: Agents Actions 28, 253 (1989)) was used. Bronchoconstrictioin was induced by intravenous injection of 1 μg/kg LTD4 (3 mg/kg of compound […] or 0.35 mg/kg of ovalbumin, respectively). In the case of oval-bumin, the animals were senzitized by intraperitoneal injection of ovalbumin (100 mg/kg) 14 days before induction. The compounds tested were applied 5 min before the administration of the inductor; the vehiculum used for the application of compound tested was administered to the control group of animals. The tracheal pressure was determined in the intervals of 2, 4 and 10 minutes after induction. The effect was expressed in percentage inhibition of bronchospasm relative to the untreated control.

[9] = test system: bronchospasm induced by LTD4; experiment: Inhibition of bronchospasm induced by LTD4; assay type: in vivo
Experimental: as §1, §2

[10] = test system: bronchospasm induced by histamine liberator 48/80; experiment: Inhibition of bronchospasm induced by histamine liberator 48/80; assay type: in vivo; conditions: dose 100 mg/kg
Experimental: as §1, §2

[11] = read-out: Experimental pleuritis, A: volume of exudate in pleural cavity, % of inh.
[12] = read-out: Experimental pleuritis, B: number of cells, % of inh.
[13] = read-out: Experimental pleuritis, C: cellularity in a volume unit, % of inh.
[14] = values with mark n: p > 0.05, read-out: Ear edema, D: edema of ear lobe, % of inh.
[15] = values with mark n: p > 0.05, read-out: Ear edema, E: hyperemia of ear lobe, % of inh.
[16] = dose 200 mg/kg, oral, values with mark n: p > 0.05, 200 mg/kg

SMILES | IC50 [1] | Inh. of LTB4 biosynth., % [1] | IC50 [2] | inhibition at 20 µM ([2]; at 20 μM) | IC50 [3] | inhibition at 100 µM [3] | Antiox. effect, % of peroxidation inhibition [4] | inhibition in vivo at 100 mg/kg [5] | inhibition in vivo at 100 mg/kg [6, 11] | inhibition in vivo at 100 mg/kg [6, 12] | inhibition in vivo at 100 mg/kg [6, 13] | inhibition in vivo at 200 mg/kg [7, 14] | inhibition in vivo at 200 mg/kg [7, 15] | inhibition in vivo at 100 mg/kg ([8]; 2 min) | inhibition in vivo at 100 mg/kg ([8]; 4 min) | inhibition in vivo at 100 mg/kg ([8]; 10 min) | inhibition in vivo at 100 mg/kg ([9]; 2 min) | inhibition in vivo at 100 mg/kg ([9]; 4 min) | inhibition in vivo at 100 mg/kg ([9]; 10 min) | other results
O=C(O)c1ccccc1Sc1cccc(OCc2ccc3ccccc3n2)c1 [Compound 17, 2-(3-(Quinoline-2-ylmethoxy)phenylsulfanyl)benzoic Acid] | 0.08 µg/mL (≈ 0.206 µM) | 100% | 44.2 µM | 38% | 0.63 µM | 100% | 4% | 19% | 5% | 20% | 15% | 16% | 3% | 23% | 36% | 50% | 11% | 28% | 23% | –
O=C(O)c1ccccc1Sc1ccc(OCCCN2CCN(Cc3ccc(Cl)cc3)CC2)cc1 [Compound 13, Dimethanesulfonate of 2-(4-(3-(1-(4-Chlorobenzyl)piperazin-4-yl)-propoxy)phenylsulfanyl)benzoic Acid] | 7.6 µg/mL | 100% | – | 28% | 41 µM | 79% | – | – | – | – | – | – | – | 46% | 35% | 51% | 6% | 38% | 54% | Inhibition of bronchospasm induced by histamine liberator 48/80 ([10]; 2 min): 84%; Inhibition of bronchospasm induced by histamine liberator 48/80 ([10]; 4 min): 82%; Inhibition of bronchospasm induced by histamine liberator 48/80 ([10]; 10 min): 69%
O=C(O)c1ccccc1Sc1ccc(OCc2ccc3ccccc3n2)cc1 [Compound 19, 2-(4-(Quinoline-2-ylmethoxy)phenylsulfanyl)benzoic Acid] | 0.13 µg/mL (≈ 0.336 µM) | 100% | 70.3 µM | 34% | 1.7 µM | 100% | 10% | 13% | 17% | 23% | 6% | 20% | 5% | 21% | 27.3% | – | 14% | 33% | 43% | –
O=C(O)c1ccccc1Sc1cccc(OCc2ccc3cc(Cl)ccc3n2)c1 [Compound 20, 2-(3-(6-Chloroquinoline-2-ylmethoxy)phenylsulfanyl)benzoic Acid] | – | 99% | 31.3 µM | 31% | 0.27 µM | 100% | 1% | – | 15% | 19% | – | – | – | 66% | 72% | 85% | 6% | 38% | 54% | Inh. of LTB4 biosynth., IC50 [1]: 0.035 µg/mL; CE: inhibition of carrageenan-induced edema, % of inh. [5]: 25%; Experimental pleuritis, C: cellularity in a volume unit, % of inh. ([6]; 100 mg/kg): 4%; Ear edema, D: edema of ear lobe, % of inh. [7, 16]: 12%; Ear edema, E: hyperemia of ear lobe, % of inh. [7, 16]: 0%
O=C(O)c1ccc(Sc2ccc(OCc3ccc4ccccc4n3)cc2)cc1 [Compound 16] | – | 98% | 91.6 µM | – | 0.024 µM | 100% | 13% | 25% | 26% | 33% | 11% | 27% | 3% | 41% | 45% | 63% | 69% | 70.8% | – | Inh. of LTB4 biosynth., IC50 [1]: 0.004 µg/mL; Inh. of LTB4 rec. binding, % ([2]; at 20 μM): 19%
O=C(O)c1ccccc1Sc1cccc(OCCCN2CCN(Cc3ccc(Cl)cc3)CC2)c1 [Compound 12, Bis-hydrogenmaleate of 2-(3-(3-(1-(4-Chlorobenzyl)piperazin-4-yl)propoxy)-phenylsulfanyl)benzoic Acid] | < 0.01 µg/mL | 100% | 7.1 µM | 85% | 16 µM | 69% | 17% | 27% | – | – | – | 18% | 7% | 71% | 73% | 90% | 9% | 41% | 60% | Inhibition of bronchospasm induced by histamine liberator 48/80 ([10]; 2 min): 77%; Inhibition of bronchospasm induced by histamine liberator 48/80 ([10]; 4 min): 78%; Inhibition of bronchospasm induced by histamine liberator 48/80 ([10]; 10 min): 85%
O=C(O)c1ccc(Sc2ccc(OCc3ccc4cc(Cl)ccc4n3)cc2)cc1 [Compound 22, 4-(4-(6-Chloroquinoline-2-ylmethoxy)phenylsulfanyl)benzoic Acid] | 0.07 µg/mL (≈ 0.166 µM) | 97% | 50 µM | 22% | 3.8 µM | 84% | 13% | 14% | 10% | 25% | 15% | 1% | 9% | 3% | 15% | 30% | 14% | 33% | 43% | –
